Measured values published in BindingDB's records for patent WO2022103411 (Genentech, 2022).

target: T1, von Hippel-Lindau disease tumor suppressor (Homo sapiens, UniProt P40337); test: Fluorescence Polarization (FP) VHL Binding Assay
T1 sequence (P40337 whole entry): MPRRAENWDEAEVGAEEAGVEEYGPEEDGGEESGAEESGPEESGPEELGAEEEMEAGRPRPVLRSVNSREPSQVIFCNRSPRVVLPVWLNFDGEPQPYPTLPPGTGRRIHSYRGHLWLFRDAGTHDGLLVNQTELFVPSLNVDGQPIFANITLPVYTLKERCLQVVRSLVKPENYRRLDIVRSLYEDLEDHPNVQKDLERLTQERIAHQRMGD
Method: The binding of test compounds to the VHL Elongin B/C complex was measured using a fluorescence polarization tracer competition assay. […] A VHL fluorescence polarization probe consisted of a VHL ligand coupled to carboxytetramethylrhodamine (TAMRA); (2S,4R)-N-(2-(2-(3',6'-bis(dimethylamino)-3-oxo-3H-spiro[isobenzofuran-l,9'-xanthene]-5-carboxamido)ethoxy)-4-(4-methylthiazol-5-yl)benzyl)-4-hydroxy-l-((R)-3-methyl-2-(3-methylisoxazol-5-yl)butanoyl)pyrrolidine-2-carboxamide. […] DMSO was dispensed into wells designated for “VHL control” (without compound) wells. The “Assay Buffer” consisted of 50 mM Tris pH 8.0, 120 mM NaCl, 0.005% Nonidet P-40, and 1% DMSO (v/v). […] Assay Buffer was also dispensed into “no VHL control” wells using the same method. […] “Post-assay” fluorescence polarization measurements were made as described for the “pre-assay” fluorescence measurement. Fluorescence polarization was calculated for each sample; taking into account the “pre-assay” fluorescence measurements and subtracting the fluorescence signal of the compound/VHL only (“pre-assay”) measurements from the “post-assay” fluorescence polarization measurements, for each plane of polarization. The data were analyzed using Genedata Screener software and normalized to the “no VHL control” and “VHL control” (without compound). IC50 values were calculated using a four parameter curve fit (Robust method).

Row | IC50 | Compound
1 | 80 nM | CC(=O)NCCOCc1cn([C@H](C(=O)N2C[C@H](O)CC2C(=O)N[C@H](Cc2ccc(-c3ccccc3)cc2)C(N)=O)C(C)(C)C)nn1 (stereo not given in full) [WO2022103411, Example S14]
2 | 150 nM | CC(C)(C)[C@@H](C(=O)N1C[C@H](O)CC1C(=O)N[C@H](Cc1ccc(-c2ccccc2)cc1)C(N)=O)n1cc(C2CC2)nn1 (stereo not given in full) [WO2022103411, Example S3]

target: T1, von Hippel-Lindau disease tumor suppressor; test: VHL HEK-293 BRET Assay
Method: The VHL NanoBRET Target Engagement Assay analyzes the apparent affinity of test compounds for VHL in cells by competitive displacement of a VHL NanoBRET tracer reversibly bound to a NanoLuc VHL fusion protein stably expressed in the cells. […] 50 nL of control compound (lOmM; parental unlabeled VHL antagonist; see structure below) and 50 nL of DMSO (negative control) were dispensed into the appropriate control wells. DMSO was backfilled to a final volume of 50 nL as required. […] Max Signal control wells consisted of DMSO only treated wells. Minimum Signal control wells contained of 10 uM parental unlabeled VHL antagonist (control compound - see structure below). […] Background Signal control wells were prepared without tracer for background correction steps. […] The raw BRET ratio values were calculated by dividing the acceptor emission value (610 nm) by the donor emission value (460nm) for each sample. To correct for background, the BRET ratio in the absence of tracer (average of no-tracer control samples) was subtracted from the BRET ratio of each sample. Raw BRET units were converted to milliBRET units (mBU) by multiplying each raw BRET value by 1,000. The normalized NanoBRET signal was calculated relative to the Max Signal control wells (DMSO treated control wells) and the Minimum Signal control wells. Percentage inhibition was calculated relative to the Minimum Signal control and Maximum Signal control wells. IC50 values were derived by four parameter curve fitting using the Robust method.

Row | Compound | IC50
3 | CCC(C)[C@@H](C(=O)N1C[C@H](O)CC1C(=O)N[C@H](Cc1ccc(-c2ccccc2)cc1)C(N)=O)n1cc(C2CC2)nn1 (stereo not given in full) [WO2022103411, Example S5] | 130 nM
4 | CC(C)[C@@H](C(=O)N1C[C@H](O)C[C@H]1C(=O)N[C@H](Cc1ccc(-c2ccccc2)cc1)C(N)=O)n1nnc2ccccc21 [WO2022103411, Compound 38] | 300 nM
5 | COC(=O)c1nnn([C@@H](C(=O)N2C[C@H](O)C[C@H]2C(=O)N[C@H](Cc2ccc(-c3ccccc3)cc2)C(N)=O)C(C)C)c1C [WO2022103411, Compound 35] | 1620 nM
6 | CC(C)(C)[C@@H](C(=O)N1C[C@H](O)CC1C(=O)N[C@H](Cc1ccc(-c2ccccc2)cc1)C(N)=O)n1cc(C2CC2)nn1 (stereo not given in full) [WO2022103411, Example S3] | 150 nM
7 | Cc1ncsc1-c1ccc2c(c1)CCCC[C@H]2NC(=O)[C@@H]1C[C@@H](O)CN1C(=O)[C@@H](n1cc(C2CC2)nn1)C(C)(C)C [WO2022103411, Compound 53] | 200 nM
8 | Cc1ncsc1-c1ccc2c(c1)CCCC[C@@H]2NC(=O)[C@@H]1C[C@@H](O)CN1C(=O)[C@@H](n1cc(C2CC2)nn1)C(C)(C)C [WO2022103411, Compound 52] | < 5 nM
9 | COC(=O)c1nnn([C@H](C(=O)N2C[C@H](O)C[C@H]2C(=O)N[C@H](Cc2ccc(-c3ccccc3)cc2)C(N)=O)C(C)C)c1C [WO2022103411, Compound 34] | 6250 nM
10 | NC(=O)[C@@H](Cc1ccc(-c2ccccc2)cc1)NC(=O)C1C[C@@H](O)CN1C(=O)[C@H](C1CCC1)n1cc(C2CC2)nn1 (stereo not given in full) [WO2022103411, Example S4] | 190 nM
11 | Cc1ncsc1-c1ccc(CNC(=O)C2C[C@H](O)CN2C(=O)[C@@H](n2cc(C3(c4cn([C@H](C(=O)N5C[C@H](O)C[C@H]5C(=O)NCc5ccc(-c6scnc6C)cc5)C(C)(C)C)nn4)CC3)nn2)C(C)(C)C)cc1 (stereo not given in full) [WO2022103411, Compound 31] | 310 nM

Results, then the compound that gave them:

Row | IC50 | Compound
12 | 20700 nM | CC(=O)NCCOCc1cn([C@H](C(=O)N2C[C@H](O)CC2C(=O)N[C@H](Cc2ccc(-c3ccccc3)cc2)C(N)=O)C(C)(C)C)nn1 (stereo not given in full) [WO2022103411, Example S14]
13 | 20 nM | Cc1ncsc1-c1ccc(CNC(=O)[C@@H]2C[C@@H](O)CN2C(=O)[C@@H](n2cc(Cc3ccccc3)nn2)C(C)(C)C)cc1 [WO2022103411, Example S27]
14 | < 5 nM | CCC(C)(C)[C@@H](C(=O)N1C[C@H](O)C[C@H]1C(=O)N[C@@H](C)c1ccc(-c2scnc2C)cc1)n1cc(C2CC2)nn1 [WO2022103411, Example S21]
15 | 10 nM | Cc1ncsc1-c1ccc(CNC(=O)[C@@H]2C[C@@H](O)CN2C(=O)[C@@H](n2cc(C3CC3)nn2)C(C)(C)C)cc1 [WO2022103411, Example S24]
16 | < 5 nM | Cc1ncsc1-c1ccc(CNC(=O)[C@@H]2C[C@@H](O)CN2C(=O)[C@H](C2CCCCC2)n2cc(C3CC3)nn2)cc1 [WO2022103411, Example S25]
17 | 100 nM | CCC(C)(C)[C@@H](C(=O)N1C[C@H](O)CC1C(=O)N[C@H](Cc1ccc(-c2ccccc2)cc1)C(N)=O)n1cc(C2CC2)nn1 (stereo not given in full) [WO2022103411, Example S6]
18 | 20 nM | Cc1ncsc1-c1ccc(C(C)NC(=O)C2C[C@@H](O)CN2C(=O)[C@H](C2C3CC4CC(C3)CC2C4)n2cc(C3CC3)nn2)c(Cl)c1 (stereo not given in full) [WO2022103411, Example S23]
19 | 110 nM | C=CC(C)(C)[C@@H](C(=O)N1C[C@H](O)CC1C(=O)N[C@H](Cc1ccc(-c2ccccc2)cc1)C(N)=O)n1cc(C2CC2)nn1 (stereo not given in full) [WO2022103411, Example S7]
20 | < 5 nM | Cc1ncsc1-c1ccc([C@H](C)NC(=O)C2C[C@@H](O)CN2C(=O)[C@H](C2C3CC4CC(C3)CC2C4)n2cc(C3CC3)nn2)cc1 (stereo not given in full) [WO2022103411, Example S20]
